Assay results reported in patent US11274092B2, “Potassium channel inhibitors” (ACESION PHARMA ApS, priority 2016, dated 2022).

Each molecule was assayed against T1, human SK3 channel (hKCa2.3) (Homo sapiens, UniProt Q9UGI6) (assay: Automated whole cell patch-clamp (QPatch 16 HT), inhibition of SK3 current). Conditions: HEK-293 cells stably expressing hKCa2.3; symmetrical K+ solutions, free calcium 400 nM; effects normalized to N-methyl bicuculline.
T1 construct: expressed in transfected cells
Type: cell-based
Procedure, shortened: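 HEK-293 cells stably expressing hKCa2.3, automated whole-cell patch clamp in symmetrical K+ (400 nM free intracellular Ca2+, pH 7.2; external pH 7.4). Held at 0 mV, ramps −80 to +80 mV (200 ms) every 5 s; increasing compound concentrations, currents run-down corrected and normalized to 100 μM N-methyl bicuculline; IC50 reported.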

| IC50 | SMILES |
| --- | --- |
| < 10 µM | O=C(CC(Nc1nc2ccccc2[nH]1)c1cccc(OC(F)(F)F)c1)NCc1nc2ccccc2o1 (stereo not shown) [Example 90, 3-[(1H-1,3-benzodiazol-2-yl)amino]-N-(1,3-benzoxazol-2-ylmethyl)-3-[3-(trifluoromethoxy)phenyl]propanamide] |
| < 10 µM | COCCNC(=O)CC(C)(Nc1nc2cc(F)ccc2[nH]1)c1cccc(C(F)(F)F)c1 (stereo not shown) [Example 91, 3-[(5-fluoro-1H-1,3-benzodiazol-2-yl)amino]-N-(2-methoxyethyl)-3-[3-(trifluoromethyl)phenyl]butanamide] |
| < 10 µM | COCCNC(=O)CC(Nc1nc2ccccc2[nH]1)c1cccc(SC)c1 (stereo not shown) [Example 92, 3-[(1H-1,3-benzodiazol-2-yl)amino]-N-(2-methoxyethyl)-3-[3-(methylsulfanyl)phenyl]propanamide] |
| < 10 µM | COCCNC(=O)CC(Nc1nc2c(OC)cccc2[nH]1)c1cccc(C(F)(F)F)c1 (stereo not shown) [Example 93, 3-[(4-methoxy-1H-1,3-benzodiazol-2-yl)amino]-N-(2-methoxyethyl)-3-[3-(trifluoromethyl)phenyl]propanamide] |
| < 10 µM | O=C(CC(Nc1nc2c(CO)cccc2[nH]1)c1cccc(C(F)(F)F)c1)NCCOC(F)(F)F (stereo not shown) [Example 94, 3-{[4-(hydroxymethyl)-1H-1,3-benzodiazol-2-yl]amino}-N-[2-(trifluoromethoxy)ethyl]-3-[3-(trifluoromethyl)phenyl]propanamide] |
| 10 to 100 µM | COCCNC(=O)CC(Nc1nc2cc(F)c(F)cc2[nH]1)c1cccc(C(F)(F)F)c1 (stereo not shown) [Example 95, 3-[(5,6-difluoro-1H-1,3-benzodiazol-2-yl)amino]-N-(2-methoxyethyl)-3-[3-(trifluoromethyl)phenyl]propanamide] |
| 10 to 100 µM | COCCNC(=O)CC(Nc1nc2c(C)c(F)ccc2[nH]1)c1cccc(C(F)(F)F)c1 (stereo not shown) [Example 96, 3-[(5-fluoro-4-methyl-1H-1,3-benzodiazol-2-yl)amino]-N-(2-methoxyethyl)-3-[3-(trifluoromethyl)phenyl]propanamide] |
